Assay results from article PMC8195388, “Heterologous Expression of Cyclodextrin Glycosyltransferase my20 in Escherichia coli and Its Application in 2-O-α-D-Glucopyranosyl-L-Ascorbic Acid Production” (Frontiers in Microbiology, 2021).

Tested on: T1, recombinant CGTase MY20 (my20)
T1 construct: codon-optimized my20 gene in pET-24a(+), E. coli BL21(DE3), intracellular, Ni-NTA purified
Test: AA-2G synthesis, HPLC […] nm, ping-pong fit
Type: biochemical, metagenome: marine microorganisms, Mariana Trench
Conditions: pH 5, 40°C

KmA (glucosyl acceptor, co-substrate beta-cyclodextrin 0.5-25 g/L) [g/L]	KmB (glucosyl donor, co-substrate L-ascorbic acid 1-50 g/L) [g/L]	SMILES
9.2 ± 0.06		O=C1O[C@H]([C@@H](O)CO)C(O)=C1O [L-ascorbic acid]
	6.9 ± 0.04	OC[C@H]1O[C@@H]2O[C@H]3[C@H](O)[C@@H](O)[C@@H](O[C@H]4[C@H](O)[C@@H](O)[C@@H](O[C@H]5[C@H](O)[C@@H](O)[C@@H](O[C@H]6[C@H](O)[C@@H](O)[C@@H](O[C@H]7[C@H](O)[C@@H](O)[C@@H](O[C@H]8[C@H](O)[C@@H](O)[C@@H](O[C@H]1[C@H](O)[C@H]2O)O[C@@H]8CO)O[C@@H]7CO)O[C@@H]6CO)O[C@@H]5CO)O[C@@H]4CO)O[C@@H]3CO [β-CD]
